Measured values taken from patent US10407467B2, “Polymyxin derivatives and their use in combination therapy together with different antibiotics” (priority 2013, dated 2019).
Bridge positions count the residues as written; N and C are the ends. Square brackets hold non-standard residues; d marks the D form. Peptide text beside a SMILES is read from it. * marks the point of attachment. ξ: configuration not given here. ξβ3hGly(cHex) = NC(CC(=O)*)C1CCCCC1; Thr(3ξ) = CC(O)[C@H](N)C(=O)O; Dab = NCC[C@H](N)C(=O)O

What was measured:
Assay in all cases: MIC, compound in combination with a second agent (broth microdilution)
Assay type in all cases: cell-based
[1] = system: Acinetobacter baumannii
In short: (§1)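 MIC values express combined concentration of test compound plus partner agent such as rifampicin, mixed at equal mass (1:1 w/w, salt-form weight). Direct colony suspensions at 0.5 McFarland, up to four strains per species, tested in duplicate; >2-fold disagreement invalid, otherwise lower value or mode of repeats reported.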

[2] = system: Escherichia coli
In short: as §1

[3] = system: Klebsiella pneumoniae
In short: as §1

[4] = system: Pseudomonas aeruginosa
In short: as §1

[5] = 1:1 combination with Aztreonam, total drug concentration
[6] = 1:1 combination with Ciprofloxacin (by row order), total drug concentration
[7] = 1:1 combination with Ciprofloxacin, total drug concentration
[8] = 1:1 combination with Tigecycline, total drug concentration
[9] = 1:1 combination with Vancomycin, total drug concentration
[10] = Ratio of Compound to Rifampicin 1:1, total drug concentration
[11] = Ratio of Compound to Rifampicin 1:3, total drug concentration

CC(C)C[C@@H]1NC(=O)[C@@H](Cc2ccccc2)NC(=O)[C@H](CCN)NC(=O)[C@@H](NC(=O)[C@H](CCN)NC(=O)[C@@H](NC(=O)CC(N)C2CCCCC2)C(C)O)CCNC(=O)[C@H](C(C)O)NC(=O)[C@H](CCN)NC(=O)[C@H](CCN)NC1=O (stereo partly drawn) [Example 10, [3(R,S)-3-Amino-3-cyclohexane-propanoyl]Polymyxin B nonapeptide] ({ξβ3hGly(cHex)}-[Thr(3ξ)][Dab][Dab][Dab][dF]L[Dab][Dab][Thr(3ξ)]; lactam 3-C)
4 microgram/mL: MIC K. pneumoniae NCTC 13442 [3, 9]
1 micrograms/mL: MIC A. baumannii NCTC 13424 [1, 5] | MIC A. baumannii NCTC 13424 ([1]; A. baumannii NCTC 13424, 1:1 combination with Azithromycin, total drug concentration) | MIC E. coli CCUG 59342 [2, 7] | MIC E. coli ATCC25922 ([2]; E. coli ATCC25922, 1:1 combination with Fusidic acid, total drug concentration) | MIC K. pneumoniae CCUG-59348 ([3]; 1:1 (wt:wt) combination with Rifampicin, MIC = total drug concentration, strain CCUG-59348) | MIC K. pneumoniae NCTC 13442 [3, 7] | MIC K. pneumoniae CCUG 59349 ([3]; K. pneumoniae CCUG 59349, 1:1 combination with Novobiocin, total drug concentration) | MIC K. pneumoniae CCUG-59348 [3, 10] | MIC K. pneumoniae CCUG-59348 [3, 11] | MIC P. aeruginosa ATCC 27853 ([4]; 1:1 (wt:wt) combination with Rifampicin, MIC = total drug concentration, strain ATCC 27853) | MIC P. aeruginosa ATCC 10145 [4, 5] | MIC P. aeruginosa CCUG 59626 [4, 8] | MIC P. aeruginosa ATCC 10145 ([4]; P. aeruginosa ATCC 10145, 1:1 combination with Azithromycin, total drug concentration)
>32 micrograms/mL: MIC K. pneumoniae CCUG 59348 [3, 8] | MIC K. pneumoniae CCUG 59348 ([3]; K. pneumoniae CCUG 59348, 1:1 combination with Meropenem, total drug concentration)
≤0.06 micrograms/mL: MIC E. coli ATCC25922 [2, 7] | MIC E. coli NCTC9001 [2, 7] | MIC K. pneumoniae ATCC 4352 ([3]; 1:1 (wt:wt) combination with Rifampicin, MIC = total drug concentration, strain ATCC 4352) | MIC K. pneumoniae ATCC 4352 [3, 5] | MIC K. pneumoniae ATCC 4352 [3, 6]
4 micrograms/mL: MIC K. pneumoniae CCUG 59349 [3, 5] | MIC K. pneumoniae ATCC BAA-1706 ([3]; K. pneumoniae ATCC BAA-1706, 1:1 combination with Meropenem, total drug concentration) | MIC K. pneumoniae CCUG 59349 ([3]; K. pneumoniae CCUG 59349, 1:1 combination with Azithromycin, total drug concentration)
0.25 micrograms/mL: MIC A. baumannii ATCC BAA-747 ([1]; 1:1 (wt:wt) combination with Rifampicin, MIC = total drug concentration, strain ATCC BAA-747) | MIC K. pneumoniae ATCC BAA-1706 [3, 6] | MIC P. aeruginosa ATCC-47 ([4]; 1:1 (wt:wt) combination with Rifampicin, MIC = total drug concentration, strain ATCC-47) | MIC P. aeruginosa CCUG 59626 ([4]; 1:1 (wt:wt) combination with Rifampicin, MIC = total drug concentration, strain CCUG 59626)
16 micrograms/mL: MIC K. pneumoniae NCTC 13442 [3, 8] | MIC K. pneumoniae NCTC 13442 ([3]; K. pneumoniae NCTC 13442, 1:1 combination with Meropenem, total drug concentration)
0.5 micrograms/mL: MIC A. baumannii NCTC 13424 [1, 6] | MIC E. coli ATCC25922 ([2]; E. coli ATCC25922, 1:1 combination with Novobiocin, total drug concentration) | MIC E. coli NCTC9001 ([2]; E. coli NCTC9001, 1:1 combination with Meropenem, total drug concentration) | MIC E. coli NCTC 13441 ([2]; E. coli NCTC 13441, 1:1 combination with Novobiocin, total drug concentration) | MIC K. pneumoniae ATCC-BAA-2146 ([3]; 1:1 (wt:wt) combination with Rifampicin, MIC = total drug concentration, strain ATCC-BAA-2146) | MIC K. pneumoniae NCTC 13438 ([3]; 1:1 (wt:wt) combination with Rifampicin, MIC = total drug concentration, strain NCTC 13438) | MIC K. pneumoniae ATCC 4352 ([3]; K. pneumoniae ATCC4352, 1:1 combination with Fusidic acid, total drug concentration) | MIC K. pneumoniae ATCC-BAA-2146 [3, 10] | MIC K. pneumoniae NCTC 13438 [3, 10] | MIC K. pneumoniae ATCC-BAA-2146 [3, 11] | MIC K. pneumoniae NCTC 13438 [3, 11] | MIC P. aeruginosa CCUG 59626 [4, 6] | MIC P. aeruginosa ATCC 10145 ([4]; P. aeruginosa ATCC 10145, 1:1 combination with Novobiocin, total drug concentration)
32 micrograms/mL: MIC K. pneumoniae CCUG 59348 [3, 7]
8 micrograms/mL: MIC E. coli NCTC9001 [2, 8] | MIC E. coli ATCC25922 ([2]; E. coli ATCC25922, 1:1 combination with Oxacillin, total drug concentration)
0.125 micrograms/mL: MIC A. baumannii CCUG57249 ([1]; 1:1 (wt:wt) combination with Rifampicin, MIC = total drug concentration, strain CCUG57249) | MIC A. baumannii NCTC 13423 ([1]; 1:1 (wt:wt) combination with Rifampicin, MIC = total drug concentration, strain NCTC 13423) | MIC A. baumannii NCTC 13424 ([1]; 1:1 (wt:wt) combination with Rifampicin, MIC = total drug concentration, strain NCTC 13424) | MIC E. coli ATCC25922 ([2]; 1:1 (wt:wt) combination with Rifampicin, MIC = total drug concentration, strain ATCC25922) | MIC E. coli NCTC9001 ([2]; 1:1 (wt:wt) combination with Rifampicin, MIC = total drug concentration, strain NCTC9001) | MIC E. coli ATCC25922 [2, 5] | MIC E. coli ATCC25922 ([2]; E. coli ATCC25922, 1:1 combination with Azithromycin, total drug concentration) | MIC K. pneumoniae ATCC 4352 ([3]; K. pneumoniae ATCC4352, 1:1 combination with Azithromycin, total drug concentration) | MIC K. pneumoniae ATCC 4352 ([3]; K. pneumoniae ATCC4352, 1:1 combination with Novobiocin, total drug concentration) | MIC P. aeruginosa ATCC 27853 [4, 6]
>32 microgram/mL: MIC K. pneumoniae CCUG 59348 [3, 9]
16 microgram/mL: MIC E. coli NCTC9001 [2, 9]
2 micrograms/mL: MIC E. coli NCTC 13441 [2, 5] | MIC E. coli NCTC 13441 ([2]; E. coli NCTC 13441, 1:1 combination with Azithromycin, total drug concentration)
